From patent US11472791B2 (Incyte Corporation, priority 2019, dated 2022)

Molecular target: CDK2/Cyclin E1 (Homo sapiens (Human), UniProt P24941)
Assay: CDK2/Cyclin E1 HTRF enzyme activity assay
Type: biochemical
Settings: 1 mM ATP
Experimental: Assays are conducted in white 384-well polystyrene plates in a final reaction volume of 8 μL. […] HTRF signals are read after 1 hour at room temperature on a PHERAstar FS plate reader (BMG Labtech). Data is analyzed with IDBS XLFit and GraphPad Prism 5.0 software using a three or four parameter dose response curve to determine IC50 for each compound.

| SMILES | IC50 |
| --- | --- |
| CCN(CC)CCCS(=O)(=O)N1CCC(Nc2ncc(C(F)(F)F)c(-c3cnn(CC(C)(C)O)c3)n2)CC1 [Example 64, 1-(4-(2-((1-((3-(Diethylamino)propyl)sulfonyl)piperidin-4-yl)amino)-5-(trifluoromethyl)pyrimidin-4-yl)-1H-pyrazol-1-yl)-2-methylpropan-2-ol] | < 50 nM |
| CC(C)(O)Cn1cc(-c2nc(NC3CCN(S(=O)(=O)CCCN4CCCC4)CC3)ncc2C(F)(F)F)cn1 [Example 66, 2-Methyl-1-(4-(2-((1-((3-(pyrrolidin-1-yl)propyl)sulfonyl)piperidin-4-yl)amino)-5-(trifluoromethyl)pyrimidin-4-yl)-1H-pyrazol-1-yl)propan-2-ol] | < 50 nM |
| CC(C)(O)Cn1cc(-c2nc(NC3CCN(S(=O)(=O)CCCN4CCCCC4)CC3)ncc2C(F)(F)F)cn1 [Example 67, 2-Methyl-1-(4-(2-((1-((3-(piperidin-1-yl)propyl)sulfonyl)piperidin-4-yl)amino)-5-(trifluoromethyl)pyrimidin-4-yl)-1H-pyrazol-1-yl)propan-2-ol] | < 50 nM |
| CN1CCN(CCCS(=O)(=O)N2CCC(Nc3ncc(C(F)(F)F)c(-c4cnn(CC(C)(C)O)c4)n3)CC2)CC1 [Example 68, 2-Methyl-1-(4-(2-((1-((3-(4-methylpiperazin-1-yl)propyl)sulfonyl)piperidin-4-yl)amino)-5-(trifluoromethyl)pyrimidin-4-yl)-1H-pyrazol-1-yl)propan-2-ol] | < 50 nM |
| CC(C)(O)Cn1cc(-c2nc(NC3CCN(S(=O)(=O)CCCN4CCNC(=O)C4)CC3)ncc2C(F)(F)F)cn1 [Example 69, 4-(3-((4-((4-(1-(2-Hydroxy-2-methylpropyl)-1H-pyrazol-4-yl)-5-(trifluoromethyl)pyrimidin-2-yl)amino)piperidin-1-yl)sulfonyl)propyl)piperazin-2-one] | < 50 nM |
| CN1CCN(CCCS(=O)(=O)N2CCC(Nc3ncc(C(F)(F)F)c(-c4cnn(CC(C)(C)O)c4)n3)CC2)CC1=O [Example 70, 4-(3-((4-((4-(1-(2-Hydroxy-2-methylpropyl)-1H-pyrazol-4-yl)-5-(trifluoromethyl)pyrimidin-2-yl)amino)piperidin-1-yl)sulfonyl)propyl)-1-methylpiperazin-2-one] | < 50 nM |
| C[C@H]1COCCN1CCCS(=O)(=O)N1CCC(Nc2ncc(C(F)(F)F)c(-c3cnn(CC(C)(C)O)c3)n2)CC1 [Example 71, (S)-2-Methyl-1-(4-(2-((1-((3-(3-methylmorpholino)propyl)sulfonyl)piperidin-4-yl)amino)-5-(trifluoromethyl)pyrimidin-4-yl)-1H-pyrazol-1-yl)propan-2-ol] | < 50 nM |
| C[C@@H]1COCCN1CCCS(=O)(=O)N1CCC(Nc2ncc(C(F)(F)F)c(-c3cnn(CC(C)(C)O)c3)n2)CC1 [Example 72, (R)-2-Methyl-1-(4-(2-((1-((3-(3-methylmorpholino)propyl)sulfonyl)piperidin-4-yl)amino)-5-(trifluoromethyl)pyrimidin-4-yl)-1H-pyrazol-1-yl)propan-2-ol] | < 50 nM |
| CC(C)(O)Cn1cc(-c2nc(NC3CCN(S(=O)(=O)CCCN4CCOCC45CC5)CC3)ncc2C(F)(F)F)cn1 [Example 73, 1-(4-(2-((1-((3-(7-Oxa-4-azaspiro[2.5]octan-4-yl)propyl)sulfonyl)piperidin-4-yl)amino)-5-(trifluoromethyl)pyrimidin-4-yl)-1H-pyrazol-1-yl)-2-methylpropan-2-ol] | < 50 nM |
| COC[C@H]1CCN(CCCS(=O)(=O)N2CCC(Nc3ncc(C(F)(F)F)c(-c4cnn(CC(C)(C)O)c4)n3)CC2)C1 [Example 74, (S)-1-(4-(2-((1-((3-(3-(Methoxymethyl)pyrrolidin-1-yl)propyl)sulfonyl)piperidin-4-yl)amino)-5-(trifluoromethyl)pyrimidin-4-yl)-1H-pyrazol-1-yl)-2-methylpropan-2-ol] | < 50 nM |
| CC(C)(O)Cn1cc(-c2nc(NC3CCN(S(=O)(=O)CCCN4CCC(O)CC4)CC3)ncc2C(F)(F)F)cn1 [Example 75, 1-(3-((4-((4-(1-(2-Hydroxy-2-methylpropyl)-1H-pyrazol-4-yl)-5-(trifluoromethyl)pyrimidin-2-yl)amino)piperidin-1-yl)sulfonyl)propyl)piperidin-4-ol] | < 50 nM |
| CC(C)(O)Cn1cc(-c2nc(NC3CCN(S(=O)(=O)CCCN4CCC(C#N)CC4)CC3)ncc2C(F)(F)F)cn1 [Example 76, 1-(3-((4-((4-(1-(2-Hydroxy-2-methylpropyl)-1H-pyrazol-4-yl)-5-(trifluoromethyl)pyrimidin-2-yl)amino)piperidin-1-yl)sulfonyl)propyl)piperidine-4-carbonitrile] | < 50 nM |
| COC1CCN(CCCS(=O)(=O)N2CCC(Nc3ncc(C(F)(F)F)c(-c4cnn(CC(C)(C)O)c4)n3)CC2)CC1 [Example 77, 1-(4-(2-((1-((3-(4-Methoxypiperidin-1-yl)propyl)sulfonyl)piperidin-4-yl)amino)-5-(trifluoromethyl)pyrimidin-4-yl)-1H-pyrazol-1-yl)-2-methylpropan-2-ol] | < 50 nM |
| CN(C)CCCCS(=O)(=O)N1CCC(Nc2ncc(C(F)(F)F)c(-c3cnn(CC(C)(C)O)c3)n2)CC1 [Example 78, 1-(4-(2-((1-((4-(Dimethylamino)butyl)sulfonyl)piperidin-4-yl)amino)-5-(trifluoromethyl)pyrimidin-4-yl)-1H-pyrazol-1-yl)-2-methylpropan-2-ol] | < 50 nM |
| CCN(CC)CCCCS(=O)(=O)N1CCC(Nc2ncc(C(F)(F)F)c(-c3cnn(CC(C)(C)O)c3)n2)CC1 [Example 79, 1-(4-(2-((1-((4-(Diethylamino)butyl)sulfonyl)piperidin-4-yl)amino)-5-(trifluoromethyl)pyrimidin-4-yl)-1H-pyrazol-1-yl)-2-methylpropan-2-ol] | < 50 nM |

Second part, the compound after the results:

| IC50 | SMILES |
| --- | --- |
| < 50 nM | CN[C@H]1C[C@H](n2cc(-c3nc(NC4CCN(S(=O)(=O)c5ccccn5)CC4)ncc3C(F)(F)F)cn2)C1 [Example 50, 4-(1-((1r,3r)-3-(Methylamino)cyclobutyl)-1H-pyrazol-4-yl)-N-(1-(pyridin-2-ylsulfonyl)piperidin-4-yl)-5-(trifluoromethyl)pyrimidin-2-amine] |
| < 50 nM | CC(C)(O)Cn1cc(-c2nc(NC3CCN(S(C)(=O)=O)CC3)ncc2C(F)(F)F)cn1 [Example 52, 2-Methyl-1-(4-(2-((1-(methylsulfonyl)piperidin-4-yl)amino)-5-(trifluoromethyl)pyrimidin-4-yl)-1H-pyrazol-1-yl)propan-2-ol] |
| < 50 nM | CCS(=O)(=O)N1CCC(Nc2ncc(C(F)(F)F)c(-c3cnn(CC(C)(C)O)c3)n2)CC1 [Example 53, 1-(4-(2-((1-(Ethylsulfonyl)piperidin-4-yl)amino)-5-(trifluoromethyl)pyrimidin-4-yl)-1H-pyrazol-1-yl)-2-methylpropan-2-ol] |
| < 50 nM | CC(C)(O)Cn1cc(-c2nc(NC3CCN(S(=O)(=O)c4ccccn4)CC3)ncc2C#N)cn1 [Example 55, 4-(1-(2-Hydroxy-2-methylpropyl)-1H-pyrazol-4-yl)-2-((1-(pyridin-2-ylsulfonyl)piperidin-4-yl)amino)pyrimidine-5-carbonitrile] |
| < 50 nM | CC(C)(O)Cn1cc(-c2nc(NC3CCN(S(=O)(=O)C4CC4)CC3)ncc2Cl)cn1 [Example 56, 1-(4-(5-Chloro-2-((1-(cyclopropylsulfonyl)piperidin-4-yl)amino)pyrimidin-4-yl)-1H-pyrazol-1-yl)-2-methylpropan-2-ol] |
| < 50 nM | CC(C)(O)Cn1cc(-c2nc(N[C@H]3CCN(S(=O)(=O)C4CC4)C[C@H]3F)ncc2C(F)(F)F)cn1 [Example 57, 1-(4-(2-(((3R,4S)-1-(Cyclopropylsulfonyl)-3-fluoropiperidin-4-yl)amino)-5-(trifluoromethyl)pyrimidin-4-yl)-1H-pyrazol-1-yl)-2-methylpropan-2-ol] |
| < 50 nM | CC(C)(O)Cn1cc(-c2nc(N[C@H]3CCN(S(C)(=O)=O)C[C@H]3F)ncc2C(F)(F)F)cn1 [Example 58, 1-(4-(2-(((3R,4S)-3-Fluoro-1-(methylsulfonyl)piperidin-4-yl)amino)-5-(trifluoromethyl)pyrimidin-4-yl)-1H-pyrazol-1-yl)-2-methylpropan-2-ol] |
| < 50 nM | C[C@@H]1CN(S(=O)(=O)C2CC2)CC[C@@H]1Nc1ncc(C(F)(F)F)c(-c2cnn(CC(C)(C)O)c2)n1 [Example 59, 1-(4-(2-(((3R,4S)-1-(Cyclopropylsulfonyl)-3-methylpiperidin-4-yl)amino)-5-(trifluoromethyl)pyrimidin-4-yl)-1H-pyrazol-1-yl)-2-methylpropan-2-ol] |
| < 50 nM | C[C@@H]1CN(S(=O)(=O)c2cnn(C)c2)CC[C@@H]1Nc1ncc(C(F)(F)F)c(-c2cnn(CC(C)(C)O)c2)n1 [Example 60, 2-Methyl-1-(4-(2-(((3R,4S)-3-methyl-1-((1-methyl-1H-pyrazol-4-yl)sulfonyl)piperidin-4-yl)amino)-5-(trifluoromethyl)pyrimidin-4-yl)-1H-pyrazol-1-yl)propan-2-ol] |
| < 50 nM | C[C@@H]1CN(S(=O)(=O)c2cn(C)cn2)CC[C@@H]1Nc1ncc(C(F)(F)F)c(-c2cnn(CC(C)(C)O)c2)n1 [Example 61, 2-Methyl-1-(4-(2-(((3R,4S)-3-methyl-1-((1-methyl-1H-imidazol-4-yl)sulfonyl)piperidin-4-yl)amino)-5-(trifluoromethyl)pyrimidin-4-yl)-1H-pyrazol-1-yl)propan-2-ol] |
| < 50 nM | C[C@@H]1CN(S(=O)(=O)c2ccccn2)CC[C@@H]1Nc1ncc(C(F)(F)F)c(-c2cnn(CC(C)(C)O)c2)n1 [Example 62, 2-Methyl-1-(4-(2-(((3R,4S)-3-methyl-1-(pyridin-2-ylsulfonyl)piperidin-4-yl)amino)-5-(trifluoromethyl)pyrimidin-4-yl)-1H-pyrazol-1-yl)propan-2-ol] |
| < 50 nM | CC(C)(O)Cn1cc(-c2nc(NC3CCN(S(=O)(=O)CCCN4CCOCC4)CC3)ncc2C(F)(F)F)cn1 [Example 63, 2-Methyl-1-(4-(2-((1-((3-morpholinopropyl)sulfonyl)piperidin-4-yl)amino)-5-(trifluoromethyl)pyrimidin-4-yl)-1H-pyrazol-1-yl)propan-2-ol] |
